Laboratory results reported in patent US12391664B2, “GluN2C/D subunit selective antagonists of the N-methyl-D-aspartate receptor” (Emory University, priority 2018, dated 2025).
pEC50: −log10 of the molar value.

Key:
[1] = biological target: T1, recombinant rat GluN1/GluN2A (Rattus norvegicus, UniProt Q00959); experiment: Two-electrode voltage-clamp recordings in Xenopus laevis oocytes, GluN2A; assay type: cell-based; settings: oocytes, 100 μM glutamate and 30 μM glycine
T1 construct: expressed in transfected cells; host or cells: Xenopus laevis oocytes injected with cRNA (GluN1:GluN2 ratio 1:2)
Method in brief: (§1)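 Oocytes injected with rat GluN1/GluN2 cRNA (1:2), held 2–5 days at 15–17 °C, clamped at −40 mV in Ba2+-containing recording solution, pH 7.4, 23 °C. Compounds applied (up to 100 μM) with 100 μM glutamate plus 30 μM glycine. IC50 and Hill slope from concentration-response fits of averaged current inhibition.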

[2] = biological target: T2, recombinant rat GluN1/GluN2B (Rattus norvegicus, UniProt Q00960); experiment: Two-electrode voltage-clamp recordings in Xenopus laevis oocytes, GluN2B; assay type: cell-based; settings: oocytes, 100 μM glutamate and 30 μM glycine
T2 construct: expressed in transfected cells; host or cells: Xenopus laevis oocytes injected with cRNA (GluN1:GluN2 ratio 1:2)
Method in brief: as §1

[3] = biological target: T3, recombinant rat GluN1/GluN2C (Rattus norvegicus, UniProt Q00961); experiment: Two-electrode voltage-clamp recordings in Xenopus laevis oocytes, GluN2C; assay type: cell-based; settings: oocytes, 100 μM glutamate and 30 μM glycine
T3 construct: expressed in transfected cells; host or cells: Xenopus laevis oocytes injected with cRNA (GluN1:GluN2 ratio 1:2)
Method in brief: as §1

[4] = biological target: T4, recombinant rat GluN1/GluN2D (Rattus norvegicus, UniProt Q62645); experiment: Two-electrode voltage-clamp recordings in Xenopus laevis oocytes, GluN2D; assay type: cell-based; settings: oocytes, 100 μM glutamate and 30 μM glycine
T4 construct: expressed in transfected cells; host or cells: Xenopus laevis oocytes injected with cRNA (GluN1:GluN2 ratio 1:2)
Method in brief: as §1

[5] = system: recombinant GluN2A-D subunits; experiment: Two-electrode voltage-clamp recordings, statements on all receptors; assay type: cell-based, rat
Protocol: All target compounds were evaluated for activity by the Traynelis laboratory at Emory University using two-electrode voltage-clamp recordings performed in Xenopus laevis oocytes expressing recombinant GluN2A-D subunits (Table 1). […] Two ester compounds 997-65 and 997-66 also performed no inhibition at GluN2A to GluN2D receptors. […] Consequently, for the compounds that Acker et al. already published, it was necessary to increase the concentration to 100 μM when collecting data for a concentration effect curve. […] Therefore, under this condition, we can only conclude that compound 997-67 remained potent at GluN2C/D-containing receptors, but its selectivity over GluN2A- and GluN2B-containing receptors could not be compared to 997-57. […] Finally, replacing the carboxylic acid to the bio-isostere amide yielded compounds 997-96 and 997-115, which dropped the potency 2- to 4-fold in comparison to their corresponding acids 997-74 and 997-114.
Two-electrode voltage-clamp recordings were performed in Xenopus laevis oocytes that were injected with mRNA to express recombinant rat GluN1/GluN2A, GluN1/GluN2B, GluN1/GluN2C, and GluN1/GluN2D. The recordings using unfertilized oocytes from Xenopus laevis were permitted by Emory University Institutional Animal Care and Use Committee (IACUC). An automatic injector (Nanoject II, Drummond Scientific) was used for cRNA injection using the pipettes filled with mineral oil. The cRNA that transcribed in vitro via the mMessage Machine kit (Ambion) was diluted with nuclease-free water, and then injected at GluN1/GluN2 with a ratio of 1:2. The oocytes were stored in Barth's solution that contained 88 mM NaCl, 5.0 mM Tris-HCl, 2.4 mM NaHCO3, 1.0 mM KCl, 0.84 mM MgSO4, 0.41 mM CaCl2, 0.33 mM Ca(NO3)2, 0.1 mg/ml gentamycin sulfate, 1.0 U/ml penicillin, and 1 μg/ml streptomycin at a pH of 7.4 and temperatures of 15-17° C. for two to five days before the two-electrode voltage-clamp recordings. When recording, the oocytes were placed in a perfusion chamber and continually washed with the recording solution comprised of 90 mM NaCl, 1.0 mM KCl, 0.50 mM BaCl2, 0.005 mM EDTA, and 10 mM HEPES at a pH of 7.4 and a temperature of 23° C. Glass electrodes with a tip resistance of 0.5 to 2.5 MΩ were obtained from thin-walled glass capillary tubes. Voltage electrodes and current electrodes were filled with 0.3 M and 3.0 M KCl, respectively. The recordings were executed with the oocytes membrane potential holding at −40 m V by an OC-725 amplifier (Warner Instrument Co). All compounds were dissolved in dimethyl sulfoxide (DMSO) as 20 mM stock solutions and future diluted to reach the desired concentration (0.05-0.5% (vol/vol) DMSO) in recording solution comprised of 30 μM glycine and 100 μM glutamate. Each compound was recorded 3-7 times in the least 4 oocytes from at least 2 different Xenopus laevis.
To evaluate the inhibition of compounds, the concentration-response curve was fitted with the average two-electrode voltage-clamp recording results with the equation
[formula] • where IC50 is the concentration of compounds that inhibit half maximal of the current response and N is the Hill slope.

GluN2C- and GluN2D = settings: GluN2C- and GluN2D-selective potentiator; read-out: EC50 (potentiation); cited from earlier work
[6] = biological target: NMDA receptors that contain GluN2B (Homo sapiens, UniProt Q05586+Q13224); settings: cited from earlier work
GluN2C subunit = GluN2C subunit (Homo sapiens, UniProt Q14957); settings: read-out: EC50 (potentiation at GluN2C subunit); cited from earlier work

T1 sequence (Q00959 23-1464, other chains not shown): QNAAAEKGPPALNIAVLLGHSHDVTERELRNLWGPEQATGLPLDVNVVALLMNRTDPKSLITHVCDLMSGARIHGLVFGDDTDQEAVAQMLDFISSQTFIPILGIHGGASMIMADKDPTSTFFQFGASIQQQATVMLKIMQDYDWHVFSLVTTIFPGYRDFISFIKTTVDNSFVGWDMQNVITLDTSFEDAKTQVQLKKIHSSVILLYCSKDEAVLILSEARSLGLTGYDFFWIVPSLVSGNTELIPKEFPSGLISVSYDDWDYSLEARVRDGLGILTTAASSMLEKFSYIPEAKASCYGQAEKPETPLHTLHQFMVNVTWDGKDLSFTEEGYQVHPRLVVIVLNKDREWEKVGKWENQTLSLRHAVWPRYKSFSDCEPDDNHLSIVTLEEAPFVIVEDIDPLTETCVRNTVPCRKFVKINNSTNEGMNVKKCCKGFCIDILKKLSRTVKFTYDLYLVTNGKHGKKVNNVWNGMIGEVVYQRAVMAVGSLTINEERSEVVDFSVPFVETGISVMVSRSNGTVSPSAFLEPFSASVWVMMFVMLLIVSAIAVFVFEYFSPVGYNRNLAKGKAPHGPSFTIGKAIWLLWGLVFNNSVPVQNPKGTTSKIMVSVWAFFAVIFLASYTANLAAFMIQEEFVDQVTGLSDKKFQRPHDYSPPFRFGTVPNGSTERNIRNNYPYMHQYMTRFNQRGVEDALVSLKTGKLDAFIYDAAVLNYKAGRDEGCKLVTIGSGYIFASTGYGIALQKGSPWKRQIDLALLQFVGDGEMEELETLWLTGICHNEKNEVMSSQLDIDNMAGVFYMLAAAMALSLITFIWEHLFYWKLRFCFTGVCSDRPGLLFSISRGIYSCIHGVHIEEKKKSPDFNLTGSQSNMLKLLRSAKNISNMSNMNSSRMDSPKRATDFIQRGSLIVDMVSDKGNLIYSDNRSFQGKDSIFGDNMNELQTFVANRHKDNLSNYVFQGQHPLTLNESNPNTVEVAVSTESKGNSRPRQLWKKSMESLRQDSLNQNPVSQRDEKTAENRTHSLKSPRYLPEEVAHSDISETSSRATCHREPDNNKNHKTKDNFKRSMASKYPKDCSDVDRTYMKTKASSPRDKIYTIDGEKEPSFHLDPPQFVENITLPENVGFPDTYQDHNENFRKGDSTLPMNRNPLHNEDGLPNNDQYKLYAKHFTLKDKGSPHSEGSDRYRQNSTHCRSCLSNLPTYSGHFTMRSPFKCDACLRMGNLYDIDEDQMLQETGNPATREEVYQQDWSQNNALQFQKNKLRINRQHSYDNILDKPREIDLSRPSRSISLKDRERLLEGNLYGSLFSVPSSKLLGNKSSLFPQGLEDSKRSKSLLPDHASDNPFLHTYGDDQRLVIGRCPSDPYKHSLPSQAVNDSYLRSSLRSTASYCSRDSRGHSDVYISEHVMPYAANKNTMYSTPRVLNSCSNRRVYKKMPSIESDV
NMDA receptors that contain GluN2B, sequence (Q13224 27-1484, other chains not shown): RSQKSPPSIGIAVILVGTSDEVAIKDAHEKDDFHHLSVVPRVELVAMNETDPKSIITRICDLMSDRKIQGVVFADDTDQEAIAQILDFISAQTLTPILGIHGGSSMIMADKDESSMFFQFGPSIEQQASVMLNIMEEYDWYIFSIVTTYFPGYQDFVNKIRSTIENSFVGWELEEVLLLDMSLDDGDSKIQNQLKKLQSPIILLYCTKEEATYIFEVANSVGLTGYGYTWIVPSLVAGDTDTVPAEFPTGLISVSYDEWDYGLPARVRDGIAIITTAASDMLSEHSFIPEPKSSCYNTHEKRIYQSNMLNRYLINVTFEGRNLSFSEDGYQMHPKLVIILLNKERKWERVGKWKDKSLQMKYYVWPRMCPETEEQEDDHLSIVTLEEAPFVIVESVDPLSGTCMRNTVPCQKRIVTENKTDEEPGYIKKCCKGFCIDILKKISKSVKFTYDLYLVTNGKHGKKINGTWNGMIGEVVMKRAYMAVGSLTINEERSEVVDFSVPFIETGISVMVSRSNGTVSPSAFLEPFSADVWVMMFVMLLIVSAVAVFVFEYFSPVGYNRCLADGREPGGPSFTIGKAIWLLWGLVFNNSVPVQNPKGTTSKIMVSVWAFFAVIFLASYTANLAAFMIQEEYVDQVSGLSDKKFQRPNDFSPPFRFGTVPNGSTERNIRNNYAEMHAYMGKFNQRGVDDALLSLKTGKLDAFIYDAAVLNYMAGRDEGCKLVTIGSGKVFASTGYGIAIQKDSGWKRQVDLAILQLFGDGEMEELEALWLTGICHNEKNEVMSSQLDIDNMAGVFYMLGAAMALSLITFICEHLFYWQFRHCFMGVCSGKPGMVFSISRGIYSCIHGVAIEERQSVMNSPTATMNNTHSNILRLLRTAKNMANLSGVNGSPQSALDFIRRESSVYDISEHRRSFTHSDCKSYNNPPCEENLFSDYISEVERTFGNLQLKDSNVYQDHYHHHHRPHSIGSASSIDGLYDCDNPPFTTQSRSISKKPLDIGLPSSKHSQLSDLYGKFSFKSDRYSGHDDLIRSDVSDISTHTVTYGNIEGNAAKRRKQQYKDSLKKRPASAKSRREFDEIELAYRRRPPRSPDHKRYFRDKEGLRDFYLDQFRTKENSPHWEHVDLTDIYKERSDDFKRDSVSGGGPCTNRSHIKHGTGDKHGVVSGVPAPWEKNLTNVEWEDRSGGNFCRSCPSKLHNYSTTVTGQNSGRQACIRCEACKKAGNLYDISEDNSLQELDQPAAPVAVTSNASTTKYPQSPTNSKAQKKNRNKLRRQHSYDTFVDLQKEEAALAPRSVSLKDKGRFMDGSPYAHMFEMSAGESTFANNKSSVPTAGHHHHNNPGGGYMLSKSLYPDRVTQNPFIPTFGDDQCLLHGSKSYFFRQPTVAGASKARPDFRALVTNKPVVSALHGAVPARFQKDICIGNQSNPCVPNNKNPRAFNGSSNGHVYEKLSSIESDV
T4 sequence (Q62645 28-1323, other chains not shown): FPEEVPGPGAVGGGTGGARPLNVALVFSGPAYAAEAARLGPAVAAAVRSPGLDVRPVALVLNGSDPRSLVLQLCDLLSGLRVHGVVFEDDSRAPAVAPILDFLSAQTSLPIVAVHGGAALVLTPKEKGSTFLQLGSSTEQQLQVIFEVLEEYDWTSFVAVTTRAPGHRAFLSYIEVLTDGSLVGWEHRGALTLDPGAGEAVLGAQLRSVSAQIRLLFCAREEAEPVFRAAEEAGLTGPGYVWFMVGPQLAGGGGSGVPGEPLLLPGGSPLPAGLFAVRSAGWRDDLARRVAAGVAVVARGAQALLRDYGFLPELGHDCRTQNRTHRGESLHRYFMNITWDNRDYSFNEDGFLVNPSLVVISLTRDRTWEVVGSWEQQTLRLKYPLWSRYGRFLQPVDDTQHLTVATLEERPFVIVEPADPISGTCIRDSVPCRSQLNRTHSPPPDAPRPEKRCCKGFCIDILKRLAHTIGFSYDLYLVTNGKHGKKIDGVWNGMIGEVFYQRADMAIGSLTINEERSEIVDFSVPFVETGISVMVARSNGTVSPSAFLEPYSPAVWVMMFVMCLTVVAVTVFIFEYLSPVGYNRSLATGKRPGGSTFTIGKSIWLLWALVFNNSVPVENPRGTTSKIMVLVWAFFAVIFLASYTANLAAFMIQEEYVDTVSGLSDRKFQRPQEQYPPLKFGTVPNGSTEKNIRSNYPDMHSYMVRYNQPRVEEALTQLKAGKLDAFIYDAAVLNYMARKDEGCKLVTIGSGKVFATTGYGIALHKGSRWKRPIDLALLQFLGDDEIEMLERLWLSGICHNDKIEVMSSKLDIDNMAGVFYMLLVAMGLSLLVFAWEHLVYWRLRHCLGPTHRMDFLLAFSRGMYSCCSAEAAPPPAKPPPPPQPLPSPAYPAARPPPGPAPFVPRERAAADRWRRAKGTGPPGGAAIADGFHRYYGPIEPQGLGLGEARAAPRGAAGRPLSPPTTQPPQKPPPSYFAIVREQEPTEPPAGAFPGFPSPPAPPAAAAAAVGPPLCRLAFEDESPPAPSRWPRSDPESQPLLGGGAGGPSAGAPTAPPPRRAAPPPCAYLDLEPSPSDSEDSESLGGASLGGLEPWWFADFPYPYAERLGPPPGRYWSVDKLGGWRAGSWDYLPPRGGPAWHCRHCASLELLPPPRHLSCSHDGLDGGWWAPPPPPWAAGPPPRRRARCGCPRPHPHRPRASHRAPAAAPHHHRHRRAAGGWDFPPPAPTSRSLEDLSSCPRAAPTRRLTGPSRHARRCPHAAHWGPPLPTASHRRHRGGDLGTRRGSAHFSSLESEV

Structure (SMILES): O=C(O)CCC(=O)N1N=C(c2ccccc2-c2ccc(Cl)cc2)CC1c1cccc2c1OCO2 (centres unmarked) [997-122, 4-(5-(benzo[d][1,3]dioxol-4-yl)-3-(4′-chloro-[1,1′-biphenyl]-2-yl)-4,5-dihydro-1H-pyrazol-1-yl)-4-oxobutanoic acid]
- GluN2A IC50 [1]: NE (NE indicates less than 50% inhibition at 30 μM.)
- GluN2B IC50 [2]: NE (NE indicates less than 50% inhibition at 30 μM.)
- GluN2C IC50 [3]: NE (NE indicates less than 50% inhibition at 30 μM.)
- GluN2D IC50 [4]: NE (NE indicates less than 50% inhibition at 30 μM.)
- activity at all receptors (GluN2A to GluN2D), in words [5]: inactive

Structure (SMILES): COc1ccc(OCC2c3cc(OC)c(OC)cc3CCN2C(=O)c2cccc(Cl)c2)cc1 (centres unmarked) [CIQ, (3-chlorophenyl)(6,7-dimethoxy-1-((4-methoxyphenoxy)methyl)3,4-dihydroisoquinolin-2(1H)-yl)methanone]
- pEC50 (GluN2C- and GluN2D): 5.22 to 5.52

Structure (SMILES): CC(C(O)c1ccc(O)cc1)N1CCC(Cc2ccccc2)CC1 (centres unmarked) [Ifenprodil]
- fold more potent at GluN2B than at GluN2A, GluN2C or GluN2D containing receptors [6]: approximately 200 fold

Structure (SMILES): COC(=O)c1ccc(C2C(C(C)=O)=C(O)C(=O)N2CCc2c(C)[nH]c3ccccc23)cc1 (centres unmarked) [PYD-106]
- pEC50 (GluN2C subunit): 4.89
